Experimental data published in paper PMC8766848, “The Structural Basis of Babesia orientalis Lactate Dehydrogenase” (Frontiers in Cellular and Infection Microbiology, 2022).

Biological target: T1, Babesia orientalis lactate dehydrogenase (BoLDH) (Babesia orientalis, UniProt A0A8X6EH37)
T1 construct: full-length ORF (330 residues), N-terminal His6 tag, recombinant rBoLDH
T1 sequence (A0A8X6EH37 1-330): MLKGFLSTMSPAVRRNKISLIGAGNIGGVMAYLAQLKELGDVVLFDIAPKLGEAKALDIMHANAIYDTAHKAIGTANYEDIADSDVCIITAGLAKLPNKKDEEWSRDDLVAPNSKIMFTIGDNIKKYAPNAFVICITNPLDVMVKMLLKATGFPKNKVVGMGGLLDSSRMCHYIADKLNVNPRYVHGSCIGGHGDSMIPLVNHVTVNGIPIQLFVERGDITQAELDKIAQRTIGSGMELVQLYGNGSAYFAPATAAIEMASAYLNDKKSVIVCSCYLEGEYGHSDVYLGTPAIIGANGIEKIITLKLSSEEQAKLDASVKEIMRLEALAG
Test: Michaelis-Menten inhibition kinetics, lactate to pyruvate, NADH absorbance at […] nm, […] gossypol
Assay type: biochemical

For `Cc1cc2c(C(C)C)c(O)c(O)c(C=O)c2c(O)c1-c1c(C)cc2c(C(C)C)c(O)c(O)c(C=O)c2c1O` [gossypol], the Ki was 4.24 ± 0.25 µM.
